# PubChem BioAssay AID179 (DTP/NCI, 2004)
# pEC50, pIC50: −log10 of the molar value. “And” between values parts separate entries of the source, which are not always exact repeats. Equal values may be shown once. The source made the active and inactive calls.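 Rule for the calls: active = compounds giving half or more protection of infected cells from virus-caused growth loss, again on retest; inactive = the rest.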
# Test system: CEM cells HIV-1 protection, formazan growth assay
# Assay: NCI AIDS Antiviral Assay
# Settings: for pIC50: measured here: growth of uninfected CEM cells
# Method in brief: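 Steps: treat uninfected and HIV-1-infected human CEM cells at five drug levels; quantify growth by soluble formazan; retest any compound reaching 50% protection; classify actives from the retest.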
SMILES,pEC50,pIC50,outcome
O=[N+]([O-])C(=C/c1cccc2ccccc12)/C(=C\c1cccc2ccccc12)[N+](=O)[O-],< 4.70,5.04,–
CCOC(=O)Nc1ccc2c(c1)/C(=N\NC(N)=S)c1ccccc1-2,< 3.70,5.47,–
CSC(SC)=C(C#N)C(=O)Nc1ccc(Cl)cc1,< 4.83,5.27,–
CC1CCCC(C)[N+]1=C(Nc1cccc(Cl)c1)c1ccccc1 (stereo not given),< 3.70,3.98,–
Cn1nnnc1SC(F)(F)c1nc2ccccc2o1,3.90,< 3.70,–
O=C(CCC(=O)Nc1cccc(Cl)c1)CC(=O)c1ccc(Cl)cc1,–,–,inactive
Cn1cc(N)cc1C(=O)Nc1cc(C(=O)Nc2cc(S(=O)(=O)O)c3cc(S(=O)(=O)O)cc(S(=O)(=O)O)c3c2)n(C)c1,4.27,3.47,–
O=C1NC(=O)C(=Cn2c(=S)sc3ccccc32)C(=O)N1,< 3.70,< 3.70,–
CC(=O)OC1CC[C@@]2(C)C(=CC[C@@H]3[C@@H]2CC[C@]2(C)Nc4c(cnn4-c4ccc(F)cc4)C[C@@H]32)C1 (stereo not given in full),< 5.00,< 5.00,–
CCCCCCCCCCCC(=O)Nc1ccc(SSc2ccc(NC(=O)CCCCCCCCCCC)cc2)cc1,< 3.70,< 3.70,–
Cc1cn(CC2OC(CO)C(CO)O2)c(=O)[nH]c1=O (stereo not given),< 3.34,< 3.34,–
C[C@]12CC[C@H]3[C@@H](CC[C@]4(O)C[C@@H](O)CC[C@]34C=O)[C@@]1(O)CC[C@@H]2C1=CC(=O)OC1,< 5.70,6.62,–
O=C(Nc1ccc(C2=NCC(O)CN2)cc1)c1ccc(C(=O)Nc2ccc(C3=NCC(O)CN3)cc2)cc1 (stereo not given),4.89,< 3.70,–
CC(C)(C)n1c(=O)n(C(=O)C(Cl)(Cl)Cl)n(C(=O)C(Cl)(Cl)Cl)c1=O,< 3.70,< 3.70,–
OC1C2C=CCC1CCC2 (stereo not given),–,–,inactive
COc1ccc(CCCNC(=O)Cc2cc(OC)c(OC)cc2CO)cc1OC,< 3.70,4.75,–
O=c1c2ccccc2[se]n1-c1ccccc1,5.79,4.75,–
O=C(CCc1n[nH]c(=S)o1)Nc1ccccc1C(F)(F)F,< 3.53,3.64,–
CC(=O)/C(=C\c1cccc([N+](=O)[O-])c1)C(=O)Nc1ccccc1C,< 4.65,< 4.65,–
O=c1[nH]c2cc(Cl)c(Br)cc2o1,3.95,3.69,–
CN1C(=O)C2C(C1=O)[C@H]1c3ccccc3C=CN1[C@@H]2C(=O)c1ccccc1 (stereo not given in full),< 3.70,3.83,–
Cc1cc(N=Nc2c(C)ccc3ncccc23)ccc1N,< 3.70,6.22,–
CCOC(=N)n1c(=O)n(C2=NCCN2)c2ccccc21,< 3.70,3.91,–

SMILES,pEC50,pIC50,outcome
COc1cc2c(cc1OC)[C@H]1C(=O)c3cc4c(cc3[C@H]1N(C)C2=O)OCO4,< 4.43,6.32,–
NC(N)=NS(=O)(=O)c1ccc(NC(=O)c2ccc3[nH]c4ccccc4c(=O)c3c2)cc1,< 3.70,< 3.70,–
C(=C(\C[P+](c1ccccc1)(c1ccccc1)c1ccccc1)c1ccccc1)/c1ccccc1,< 3.70,6.00,–
Nc1nc(NCC2(CO)CC2)cc(=O)[nH]1,< 3.70,< 3.70,–
CC1(C)CCc2cc3c(cc2O1)OC(C)(C)C1c2c(ccc4c2CCC(C)(C)O4)OC31 (stereo not given),–,–,inactive
CCN(CC)C(=S)[S-].CCN(CC)C(=S)[S-].O=C(O)CC([S-])C(=O)O.[Fe+3] (stereo not given),< 4.00,4.41,–
Cc1n[nH]c(=O)n1/N=C\CC/C=N\n1c(C)n[nH]c1=O,< 3.70,< 3.70,–
O=S1(=O)CCC(OC2CCS(=O)(=O)C2)C1 (stereo not given),< 3.01,< 3.01,–
COC(=O)c1ccccc1/C=C1/Cc2ccccc2C1=O,< 3.70,< 3.70,–
COc1ccc(/C=C2\CN(C)CC3C2=NC(=S)NC3c2ccc(OC)cc2)cc1 (stereo not given),< 3.70,5.18,–
COc1cc(Nc2cnc3cc(F)c(F)cc3n2)cc(OC)c1,< 3.70,< 3.70,–
NCC1=NCCN1,< 3.70,< 3.70,–
O=C(N/N=C(\c1nc2ccc(Cl)cc2[nH]c1=O)C(O)c1ccccc1Cl)c1ccncc1 (stereo not given),< 3.27,< 3.27,–
Cc1cc(C)cc(-n2c3nc(=O)n(C)c(=O)c-3nc3ccccc32)c1,–,–,inactive
Cc1cc(NS(=O)(=O)c2ccc(Nc3c4ccccc4nc4c(C(=O)Nc5ccc(S(=O)(=O)N=C(N)N)cc5)cccc34)cc2)no1,4.73,4.27,–
CCN(CC)c1c(C(=O)/C=C/c2ccccc2)c(-c2ccccc2)nn(C)c1=O,< 4.73,5.04,–
CCOC(=O)N1C2C=CC(C2)N1C(=O)Nc1ccc(Cl)cc1 (stereo not given),< 3.70,3.77,–
CN(C)CCNC(=O)c1nn(-c2ccccc2)c2c1CSc1ccccc1-2,< 3.70,3.96,–
COc1cccc(NC(=O)/C(Cc2nc3ccccc3nc2C)=N/NC(=O)C[n+]2ccccc2)c1,< 4.02,< 4.02,–
COc1ccc(-c2oc3cc(-c4cc5oc(-c6ccc(OC)cc6)c(-c6ccc(OC)cc6)c5cc4OC)c(OC)cc3c2-c2ccc(OC)cc2)cc1,< 3.70,< 3.70,–
C=CCc1c(O)c2nsnc2c2nsnc12,< 3.70,< 3.70,–
Cc1cc(=O)c2c3c(ccc2[nH]1)Oc1ccccc1O3,< 5.12,< 5.12,–
CC1(C)NC(=O)[C@]2(C[C@@H](OC(=O)c3ccccc3)C=C2C=O)O1,< 3.70,5.61,–

SMILES,pEC50,pIC50,outcome
Cn1cnc(N2CCCC2)c(C#N)c1=O,< 3.70,< 3.70,–
Cc1ncc([N+](=O)[O-])n1CCN(C)CCCCn1ccnc1[N+](=O)[O-],< 3.70,< 3.70,–
Cc1cc(N(CCC#N)CCC#N)ccc1/C=C1\SC(=S)NC1=O,< 3.70,4.49,–
O=c1onc2n1-c1ccc(Cl)cc1C(=S)N1CSCC21 (stereo not given),< 3.70,4.49,–
C#CCN1C(=O)c2ccccc2S1(=O)=O,< 3.70,< 3.70,–
Brc1cccc(-c2nc3ccccc3[nH]2)c1,< 3.88,4.06,–
CC(=O)[C@H]1CC[C@H]2[C@@H]3CCC4=CC(=O)CC[C@]4(C)[C@H]3CC[C@]12C,< 3.70,4.07 and 4.04,–
FC(F)(F)c1cccnc1Sc1nc2ccccc2s1,< 3.70,4.42,–
CN(C)C(=O)/N=N/C(=O)N(C)C,< 4.05,4.17,–
O=C(/C=C(\O)c1ccccc1)C(=O)NNc1ccc([N+](=O)[O-])cc1[N+](=O)[O-],< 3.70,4.22,–
O=C(N/N=C/c1ccccc1)c1c(F)c(F)c(F)c(F)c1F,< 3.70,3.95,–
Cc1noc2nccnc12,< 3.73,< 3.73,–
COc1ccc(C(=O)CC(c2ccccc2)[C@H]2C(c3ccc(OC)cc3)=Nc3c(nc(SC)n(C)c3=O)NC2c2ccccc2)cc1 (stereo not given in full),< 3.70,4.72,–
CC(=O)OC1[C@@H](OC(C)=O)[C@H](OC(C)=O)C2(CO2)[C@H](OC(C)=O)[C@H]1OC(C)=O (stereo not given in full),< 3.70,4.91,–
COc1cccc(C=C2N=C(C)N(n3c(-c4ccccc4)nc4ccccc4c3=O)C2=O)c1,< 3.70,4.14,–
O=C(O/N=C1\CCCC\C1=C/c1ccccc1)c1ccc([N+](=O)[O-])cc1,–,–,inactive
CCSc1nc(=[N+]2CCCC2)ss1,–,–,inactive
Cc1ccc(S(=O)(=O)NC(=O)NCCc2ccccc2)cc1,5.15,3.53,–
Cc1nc2ccc(Br)cc2c(=O)n1-c1ccc(NC2OCC(O)C(O)C2O)cc1 (stereo not given),< 3.70,4.68 and 3.86,–
O=[N+]([O-])/C=C1\COCc2cc3c(cc21)OCO3,< 3.70,4.54,–
COc1ccc(-c2cc(-c3ccco3)c(C#N)c(=O)[nH]2)cc1,< 4.61,< 4.61,–
CC1CCOc2ccc(cc2)C=Nc2ccc(cc2)CCc2ccc(cc2)N=Cc2ccc(cc2)OCC1 (stereo not given),< 3.70,< 3.70,–
O=C1/C(=C/c2ccc(O)cc2)CCCC1CN1CCCCC1 (stereo not given),< 5.70,5.73,–

SMILES,pEC50,pIC50,outcome
COc1cc2c(cc1OCc1ccccc1)NC(=O)[C@@H]1CCCN1C2=O,< 3.70,< 3.70,–
O=Cc1ccc(C=O)n1C1CCOC1=O (stereo not given),–,–,inactive
c1cc(C[S+]2CCCC2)ccc1C[S+]1CCCC1,< 4.00,< 4.00,–
CN(C)P1(=O)N(c2ccccc2)P(=O)(N(C)C)N1c1ccccc1 (stereo not given),< 3.65,< 3.65,–
CNC(=O)CCCNC(=O)CCCC(=O)OC,< 3.70,< 3.70,–
O=[N+]([O-])c1ccc(C2ON=C(c3ccccc3)N2C23CC4CC(CC(C4)C2)C3)cc1 (stereo not given),< 3.70,3.73,–
Cc1cccc(C(C)C)c1NC(=O)C(=O)CC(=O)c1c(C)n([O-])c2ccccc2[n+]1=O,< 4.07,4.77,–
CC1=CC(=C(c2ccc(N)cc2)c2ccc(N)cc2)C=CC1=N,–,–,inactive
CC[C@@H](CCCC[C@@H]1CC[C@H]2CC(=O)C[C@@H]12)OC,< 3.70,3.73,–
CN(C)c1ccc(/C=C(\NC(=O)c2ccccc2)C2=NC(CC(=O)O)C(=O)O2)cc1 (stereo not given),< 4.30,< 4.30,–
O=C(Nc1ccc(F)cc1)N(C1CCCCC1)C1CCCCC1,< 3.70,4.09,–
COc1ccc2[nH]c3c(c2c1)COc1ccccc1C3=O,< 3.70,< 3.70,–
Cc1nc(N)c(N2CCN(C(=O)O)CC2)c(=O)[nH]1,< 3.70,< 3.70,–
O=C1OCCN(CCO)C12CCCC2,< 3.12,< 3.12,–
COC(=O)C1Cc2c(C)cccc2C1=O (stereo not given),< 3.70,3.96,–
CCCCCCCCCCCCCCC(O)C[N+](C)(CCO)CCO (stereo not given),< 3.70,5.96,–
O=CN/C=C\c1cc(O)ccc1O,< 3.37,5.28,–
Clc1cccc2nn3ccnc3n12,< 3.02,3.31,–
O=C1NC(c2cccs2)N2C(=O)NC(c3cccs3)N12 (stereo not given),< 3.70,3.84,–
CC(=O)/C(=C\n1c(=S)[nH]c2ccc([N+](=O)[O-])cc21)C(=O)Nc1ccccc1C,< 3.70,4.05,–
